# Assay results as given in ChEMBL document CHEMBL1140902 (J Med Chem, 2009).
# Target: T1, Progesterone receptor (Homo sapiens, UniProt P06401)
# T1 sequence (P06401 whole entry): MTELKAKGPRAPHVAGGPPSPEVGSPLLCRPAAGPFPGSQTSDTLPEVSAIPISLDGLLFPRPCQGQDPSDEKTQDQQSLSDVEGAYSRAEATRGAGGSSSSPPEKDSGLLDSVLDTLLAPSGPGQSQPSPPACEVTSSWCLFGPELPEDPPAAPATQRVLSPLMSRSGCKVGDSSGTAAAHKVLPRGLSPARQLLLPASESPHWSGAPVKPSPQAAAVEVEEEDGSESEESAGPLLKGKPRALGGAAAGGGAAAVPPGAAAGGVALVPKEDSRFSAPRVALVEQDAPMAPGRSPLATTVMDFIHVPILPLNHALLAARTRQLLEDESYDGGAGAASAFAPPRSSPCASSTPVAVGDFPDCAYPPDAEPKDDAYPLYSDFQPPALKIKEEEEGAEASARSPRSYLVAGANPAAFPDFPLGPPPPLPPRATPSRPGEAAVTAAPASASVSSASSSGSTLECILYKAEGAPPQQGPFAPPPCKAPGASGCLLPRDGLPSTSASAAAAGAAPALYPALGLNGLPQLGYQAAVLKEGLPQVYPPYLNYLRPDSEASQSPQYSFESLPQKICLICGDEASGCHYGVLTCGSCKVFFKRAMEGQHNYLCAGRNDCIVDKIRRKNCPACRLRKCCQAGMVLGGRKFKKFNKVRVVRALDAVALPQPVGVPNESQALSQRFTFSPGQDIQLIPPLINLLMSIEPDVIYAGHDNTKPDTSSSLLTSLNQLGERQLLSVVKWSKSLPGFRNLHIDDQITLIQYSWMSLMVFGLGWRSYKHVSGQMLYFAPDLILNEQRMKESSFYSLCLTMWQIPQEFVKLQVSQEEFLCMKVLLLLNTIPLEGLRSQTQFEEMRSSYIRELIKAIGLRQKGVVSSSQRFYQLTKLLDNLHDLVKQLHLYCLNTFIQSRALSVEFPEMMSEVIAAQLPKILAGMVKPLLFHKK
# Experiment: Antagonist activity at progesterone receptor in human T47D cells assessed as inhibition of progesterone-induced alkaline phosphatase activity after 48 hrs
# Format: functional, cell-based
row,Compound,IC50 [nM]
1,CC#C[C@]1(O)CC[C@H]2[C@@H]3CCC4=CC(=O)CCC4=C3[C@@H](c3ccc(OC)cc3)C[C@@]21C,0.095
2,CC#C[C@]1(O)CC[C@H]2[C@@H]3CCC4=CC(=O)CCC4=C3[C@@H](c3ccc(N(C)CCCCCCCCCCC(=O)O)cc3)C[C@@]21C,0.46
3,CC#C[C@]1(O)CC[C@H]2[C@@H]3CCC4=CC(=O)CCC4=C3[C@@H](c3ccc(N(C)CCCCCC(N)=O)cc3)C[C@@]21C,0.55
4,CC#C[C@]1(O)CC[C@H]2[C@@H]3CCC4=CC(=O)CCC4=C3[C@@H](c3ccc(N(C)CCCOC(=O)CCC(=O)O)cc3)C[C@@]21C,2.1
5,CC#C[C@]1(O)CC[C@H]2[C@@H]3CCC4=CC(=O)CCC4=C3[C@@H](c3ccc(N(C)C(=O)CCCC(=O)OC)cc3)C[C@@]21C,1.55
6,CC#C[C@]1(O)CC[C@H]2[C@@H]3CCC4=CC(=O)CCC4=C3[C@@H](c3ccc(N(C)C(=O)Nc4ccc(Cl)cc4)cc3)C[C@@]21C,0.27
7,CC#C[C@]1(O)CC[C@H]2[C@@H]3CCC4=CC(=O)CCC4=C3[C@@H](c3ccc(N(C)CCCCCCCCCCC(=O)OC)cc3)C[C@@]21C,0.63
8,CC#C[C@]1(O)CC[C@H]2[C@@H]3CCC4=CC(=O)CCC4=C3[C@@H](c3ccc(N(C)C(=O)NCCCCCC(=O)OC)cc3)C[C@@]21C,2.2
9,CC#C[C@]1(O)CC[C@H]2[C@@H]3CCC4=CC(=O)CCC4=C3[C@@H](c3ccc(N(C)CCCCCCOC(=O)CCC(=O)O)cc3)C[C@@]21C,0.25
10,CC#C[C@]1(O)CC[C@H]2[C@@H]3CCC4=CC(=O)CCC4=C3[C@@H](c3ccc(N(C)CCCCCC(=O)O)cc3)C[C@@]21C,0.44
11,CC#C[C@]1(O)CC[C@H]2[C@@H]3CCC4=CC(=O)CCC4=C3[C@@H](c3ccc(N(C)C(=O)NCCCC)cc3)C[C@@]21C,0.79
12,CC#C[C@]1(O)CC[C@H]2[C@@H]3CCC4=CC(=O)CCC4=C3[C@@H](c3ccc(N(C)CCCCCC=O)cc3)C[C@@]21C,0.15
13,CC#C[C@]1(O)CC[C@H]2[C@@H]3CCC4=CC(=O)CCC4=C3[C@@H](c3ccc(N(C)CCC(=O)O)cc3)C[C@@]21C,34
14,CC#C[C@]1(O)CC[C@H]2[C@@H]3CCC4=CC(=O)CCC4=C3[C@@H](c3ccc(N(C)C(=O)NCCCCCC(=O)N[C@@H](CC(C)C)C(=O)OC(C)(C)C)cc3)C[C@@]21C,1.7
15,CC#C[C@]1(O)CC[C@H]2[C@@H]3CCC4=CC(=O)CCC4=C3[C@@H](c3ccc(N(C)C(=S)NCCCC)cc3)C[C@@]21C,0.73
16,CC#C[C@]1(O)CC[C@H]2[C@@H]3CCC4=CC(=O)CCC4=C3[C@@H](c3ccc(N(C)C(=O)CCCCC(=O)OC)cc3)C[C@@]21C,1.8
17,CC#C[C@]1(O)CC[C@H]2[C@@H]3CCC4=CC(=O)CCC4=C3[C@@H](c3ccc(OCCCCCCCCCBr)cc3)C[C@@]21C,1
18,CC#C[C@]1(O)CC[C@H]2[C@@H]3CCC4=CC(=O)CCC4=C3[C@@H](c3ccc(N(C)CCC(=O)OC)cc3)C[C@@]21C,0.16
19,CC#C[C@]1(O)CC[C@H]2[C@@H]3CCC4=CC(=O)CCC4=C3[C@@H](c3ccc(N(C)C(=O)CCCCC)cc3)C[C@@]21C,0.69
20,CC#C[C@]1(O)CC[C@H]2[C@@H]3CCC4=CC(=O)CCC4=C3[C@@H](c3ccc(N(C)CCCCCCO)cc3)C[C@@]21C,0.06

row,Compound,IC50 [nM]
1,CC#C[C@]1(O)CC[C@H]2[C@@H]3CCC4=CC(=O)CCC4=C3[C@@H](c3ccc(N(C)CCCCCCOC(=O)CCC(=O)OC)cc3)C[C@@]21C,0.17
2,CC#C[C@]1(O)CC[C@H]2[C@@H]3CCC4=CC(=O)CCC4=C3[C@@H](c3ccc(N(C)CCCCCCCCC)cc3)C[C@@]21C,1.4
3,CC#C[C@]1(O)CC[C@H]2[C@@H]3CCC4=CC(=O)CCC4=C3[C@@H](c3ccc(N(C)C(=O)NCCCCCC(=O)N[C@@H](CC(C)C)C(=O)O)cc3)C[C@@]21C,72
4,CC#C[C@]1(O)CC[C@H]2[C@@H]3CCC4=CC(=O)CCC4=C3[C@@H](c3ccc(N(C)CCCO)cc3)C[C@@]21C,0.12
5,CC#C[C@]1(O)CC[C@H]2[C@@H]3CCC4=CC(=O)CCC4=C3[C@@H](c3ccc(O)cc3)C[C@@]21C,1.3
6,CC#C[C@]1(O)CC[C@H]2[C@@H]3CCC4=CC(=O)CCC4=C3[C@@H](c3ccc(N(C)CCC)cc3)C[C@@]21C,0.27
7,CC#C[C@]1(O)CC[C@H]2[C@@H]3CCC4=CC(=O)CCC4=C3[C@@H](c3ccc(N(C)CCCCCC)cc3)C[C@@]21C,0.66
8,CC#C[C@]1(O)CC[C@H]2[C@@H]3CCC4=CC(=O)CCC4=C3[C@@H](c3ccc(N(C)CCCCCCCC(=O)OC)cc3)C[C@@]21C,0.47
9,CC#C[C@]1(O)CC[C@H]2[C@@H]3CCC4=CC(=O)CCC4=C3[C@@H](c3ccc(N(C)C(=O)CCCC(=O)O)cc3)C[C@@]21C,100
10,CC#C[C@]1(O)CC[C@H]2[C@@H]3CCC4=CC(=O)CCC4=C3[C@@H](c3ccc(N(C)C(=O)NCCCCCC(=O)O)cc3)C[C@@]21C,72
11,CC#C[C@]1(O)CC[C@H]2[C@@H]3CCC4=CC(=O)CCC4=C3[C@@H](c3ccc(N(C)CCCOCc4ccc(C(N)=O)c(O)c4)cc3)C[C@@]21C,0.46
12,CC#C[C@]1(O)CC[C@H]2[C@@H]3CCC4=CC(=O)CCC4=C3[C@@H](c3ccc(N(C)CCCCCC(=O)OC)cc3)C[C@@]21C,0.4
13,CC#C[C@]1(O)CC[C@H]2[C@@H]3CCC4=CC(=O)CCC4=C3[C@@H](c3ccc(N(C)C(=O)CCCCC(=O)O)cc3)C[C@@]21C,78
14,CC#C[C@]1(O)CC[C@H]2[C@@H]3CCC4=CC(=O)CCC4=C3[C@@H](c3ccc(N(C)CCCCCC(=O)NCCCC)cc3)C[C@@]21C,0.9
15,CC#C[C@]1(O)CC[C@H]2[C@@H]3CCC4=CC(=O)CCC4=C3[C@@H](c3ccc(N(C)CCCOC(=O)CCC(=O)OC)cc3)C[C@@]21C,1.2
16,CC#C[C@]1(O)CC[C@H]2[C@@H]3CCC4=CC(=O)CCC4=C3[C@@H](c3ccc(N(C)CCCCCC4OCCO4)cc3)C[C@@]21C,0.17
17,CC#C[C@]1(O)CC[C@H]2[C@@H]3CCC4=CC(=O)CCC4=C3[C@@H](c3ccc(N(C)C(=S)Nc4ccc(Cl)cc4)cc3)C[C@@]21C,0.16
18,CC#C[C@]1(O)CC[C@H]2[C@@H]3CCC4=CC(=O)CCC4=C3[C@@H](c3ccc(N(C)CCC(=O)Nc4ccc(C(N)=O)c(O)c4)cc3)C[C@@]21C,0.44
19,CC#C[C@]1(O)CC[C@H]2[C@@H]3CCC4=CC(=O)CCC4=C3[C@@H](c3ccc(N(C)CCCCCCCC(=O)O)cc3)C[C@@]21C,0.27
20,CC#C[C@]1(O)CC[C@H]2[C@@H]3CCC4=CC(=O)CCC4=C3[C@@H](c3ccc(NC)cc3)C[C@@]21C [DESMETHYLMIFEPRISTONE],0.17

# Target: T1, Progesterone receptor
# Experiment: Antagonist activity at progesterone receptor in human T47D-C124 cells transfected with luciferase gene linked to MMTV promoter assessed as inhibition of progesterone-induced luciferase transactivation activity after 24 hrs
# Format: functional, cell-based
row,Compound,IC50 [nM]
1,CC#C[C@]1(O)CC[C@H]2[C@@H]3CCC4=CC(=O)CCC4=C3[C@@H](c3ccc(N(C)CCCCCCO)cc3)C[C@@]21C,0.071
2,CC#C[C@]1(O)CC[C@H]2[C@@H]3CCC4=CC(=O)CCC4=C3[C@@H](c3ccc(N(C)CCCCCCCCC)cc3)C[C@@]21C,0.38
3,CC#C[C@]1(O)CC[C@H]2[C@@H]3CCC4=CC(=O)CCC4=C3[C@@H](c3ccc(N(C)CCCO)cc3)C[C@@]21C,0.105
4,CC#C[C@]1(O)CC[C@H]2[C@@H]3CCC4=CC(=O)CCC4=C3[C@@H](c3ccc(N(C)CCC)cc3)C[C@@]21C,0.025
5,CC#C[C@]1(O)CC[C@H]2[C@@H]3CCC4=CC(=O)CCC4=C3[C@@H](c3ccc(N(C)CCCCCC)cc3)C[C@@]21C,0.18
6,CC#C[C@]1(O)CC[C@H]2[C@@H]3CCC4=CC(=O)CCC4=C3[C@@H](c3ccc(N(C)CCCCCC4OCCO4)cc3)C[C@@]21C,0.073
7,CC#C[C@]1(O)CC[C@H]2[C@@H]3CCC4=CC(=O)CCC4=C3[C@@H](c3ccc(NC)cc3)C[C@@]21C [DESMETHYLMIFEPRISTONE],0.073
